The results in this text go back to ChEMBL document CHEMBL4387741, “Optimization of novel reversible Bruton's tyrosine kinase inhibitors identified using Tethering-fragment-based screens” (Bioorg Med Chem, 2019).

Molecules are shown by their SMILES. Some results are limits rather than exact numbers.

The target of this assay is Tyrosine-protein kinase BTK (Homo sapiens, UniProt Q06187). The experiment in a line: biochemical.
Chain of Tyrosine-protein kinase BTK (Q06187 whole entry): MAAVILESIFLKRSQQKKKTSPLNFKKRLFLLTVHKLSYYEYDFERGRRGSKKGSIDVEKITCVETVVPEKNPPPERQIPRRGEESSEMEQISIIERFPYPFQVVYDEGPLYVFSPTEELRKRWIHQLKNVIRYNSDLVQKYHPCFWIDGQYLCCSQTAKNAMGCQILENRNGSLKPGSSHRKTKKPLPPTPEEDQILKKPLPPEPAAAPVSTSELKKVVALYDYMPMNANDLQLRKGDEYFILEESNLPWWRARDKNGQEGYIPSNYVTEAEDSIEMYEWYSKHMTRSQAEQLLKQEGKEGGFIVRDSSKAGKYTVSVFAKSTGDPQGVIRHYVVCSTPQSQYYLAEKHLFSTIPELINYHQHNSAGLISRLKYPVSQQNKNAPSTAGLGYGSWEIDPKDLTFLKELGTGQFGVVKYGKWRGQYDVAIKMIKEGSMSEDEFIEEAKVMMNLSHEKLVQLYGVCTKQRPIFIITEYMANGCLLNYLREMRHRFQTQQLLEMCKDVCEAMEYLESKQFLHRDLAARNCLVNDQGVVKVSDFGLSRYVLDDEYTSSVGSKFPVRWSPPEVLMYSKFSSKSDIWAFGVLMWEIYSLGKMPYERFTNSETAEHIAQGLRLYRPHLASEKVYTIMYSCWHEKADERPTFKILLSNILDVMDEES
Description: Reversible inhibition of recombinant full-length N-terminal 6-His-tagged human BTK expressed in baculovirus infected Sf21 insect cells using fluorescent-labeled polyGAT peptide as substrate incubated for 30 mins by TR-FRET assay
Broadly, the IC50 is the concentration needed to halve the response being measured. `c1cc(Nc2nc3ccccc3[nH]2)cc(C2CCCN(c3ncnc4[nH]ccc34)C2)c1` (stereo unspecified) had a half-maximal inhibitory concentration (IC50) of 4.1 µM. In other words, the single-digit micromolar range.
`CC(C)(C)c1ccccc1NC(=O)Nc1cccc(C2CCCN(c3ncnc4[nH]ccc34)C2)c1` (racemic) showed an IC50 of 0.14 µM.
The molecule `O=C(Nc1ccc(F)cc1)Nc1cccc(C2CCCN(c3ncnc4[nH]ccc34)C2)c1` (stereo unspecified) showed an IC50 of 1.3 µM.
In the case of `O=C(NCCCCCNc1ncnc2[nH]ccc12)Nc1ccccc1`, the IC50 was found to be 16 µM.
As to `N#C/N=C(\Nc1ccccc1)Nc1cccc(C2CCCN(c3ncnc4[nH]ccc34)C2)c1` (stereo unspecified), the IC50 was found to be 68 µM.
In the case of `O=C(Nc1cccc(C2CCCN(c3ncnc4[nH]ccc34)C2)c1)Nc1ccccc1C1CCCC1` (racemic), half-maximal inhibition (IC50) was put at 0.1 µM. This IC50 lies about 680-fold lower than the previous one.
The molecule `O=S(=O)(Nc1cccc(C2CCCN(c3ncnc4[nH]ccc34)C2)c1)c1ccccc1` (stereo unspecified) displayed an IC50 of 19 µM. This IC50 lies about 190-fold higher than the previous one.
Turning to `CC(C)(C#N)c1ccccc1NC(=O)Nc1cccc(C2CCCN(c3ncnc4[nH]ccc34)C2)c1` (racemic), the IC50 is greater than 10 µM.
In turn, `O=C(Nc1cccc(C2CCCN(c3ncnc4[nH]ccc34)C2)c1)Nc1ccccc1F` (stereo unspecified) came in with an IC50 of 0.5 µM.
In turn, `O=C(Nc1cccc(C2CCCN(c3ncnc4[nH]ccc34)C2)c1)Nc1ccccc1N1CCCCC1` (racemic) gave a 50% inhibitory concentration (IC50) of 0.55 µM.
The result for `O=C(Nc1cccc(C2CCCN(c3ncnc4[nH]ccc34)C2)c1)Nc1ccccc1C(F)(F)F` (stereo unspecified) reads 0.46 µM.
Regarding `O=C(NCCCCCCNc1ncnc2[nH]ccc12)Nc1ccccc1`, the 50% inhibitory concentration (IC50) was 11 µM. This IC50 lies about 24-fold higher than the previous one.
`O=c1c(Nc2ccccc2)c(Nc2cccc(C3CCCN(c4ncnc5[nH]ccc45)C3)c2)c1=O` (stereo unspecified) came in with an IC50 of 44 µM. Against the preceding molecule, the IC50 is about 4-fold higher.
`O=C(Nc1cccc(C2CCCN(c3ncnc4[nH]ccc34)C2)c1)c1ccccc1` (stereo unspecified) displayed a half-maximal inhibitory concentration (IC50) of 4.9 µM.
The molecule `O=C(Nc1cccc(F)c1)Nc1cccc(C2CCCN(c3ncnc4[nH]ccc34)C2)c1` (stereo unspecified) gave a half-inhibitory concentration (IC50) of 1.2 µM.
Molecule `O=C(Nc1cccc(Cl)c1)Nc1cccc(C2CCCN(c3ncnc4[nH]ccc34)C2)c1` (stereo unspecified) returned an IC50 of 1.8 µM.
`O=C(Nc1ccncc1)Nc1cccc(C2CCCN(c3ncnc4[nH]ccc34)C2)c1` (stereo unspecified) returned a half-maximal inhibitory concentration (IC50) greater than 10 µM.
The value for `O=C(NCCC#CCCNc1ncnc2[nH]ccc12)Nc1ccccc1` was 19 µM; that for `O=C(Nc1cccnc1)Nc1cccc(C2CCCN(c3ncnc4[nH]ccc34)C2)c1` (stereo unspecified) was 3.2 µM.
`O=C(Nc1cccc(C2CCCN(c3ncnc4[nH]ccc34)C2)c1)Nc1ccccn1` (stereo unspecified) registered an IC50 of 2.7 µM.
Consider `O=C(NCCCC1CCCN(c2ncnc3[nH]ccc23)C1)Nc1ccccc1` (racemic), for which the IC50 was found to be 2 µM.
The value for `O=C(Nc1ccc(Cl)cc1)Nc1cccc(C2CCCN(c3ncnc4[nH]ccc34)C2)c1` (stereo unspecified) was 2.3 µM; that for `O=C(Nc1ccccc1)Nc1cccc(CCNc2ncnc3[nH]ccc23)c1` was 8.3 µM.
`O=C(Cc1ccccc1)Nc1cccc(C2CCCN(c3ncnc4[nH]ccc34)C2)c1` (stereo unspecified): the IC50 came to 45 µM.
`O=C(NCCc1cccc(Nc2ncnc3[nH]ccc23)c1)Nc1ccccc1`: it took 12 µM to reach half-maximal inhibition (IC50).
Molecule `O=C(Nc1cccc(C2CCCN(c3ncnc4[nH]ccc34)C2)c1)Nc1ccccc1C1CC1` (racemic) yielded an IC50 of 0.2 µM.
